This note sets out measurements from patent US20250230193A1, “CYCLIC COMPOUND HAVING SELECTIVE KRAS INHIBITORY EFFECT ON HRAS AND NRAS” (CHUGAI SEIYAKU KABUSHIKI KAISHA, priority 2022, published 2025).

For assay [1], the target named is GDP-bound HRAS wild-type protein (Homo sapiens, UniProt P01112). The assay can be described thus: Binding to HRAS by surface plasmon resonance (SPR), Single Cycle Kinetics. The settings on record: KD ratio HRAS/KRAS, SPR.
Assay [2] deals with GDP-bound NRAS wild-type protein (Homo sapiens, UniProt P01111). The assay can be described thus: Binding to NRAS by surface plasmon resonance (SPR), Single Cycle Kinetics. The settings on record: KD ratio NRAS/KRAS, SPR.

*1 amine or outer side, *2 acyl side, *3 side chain or, on linkers, in order; H or OH if unused. Where a SMILES comes first, the peptide text is derived from it. Bridges are numbered along the chain shown (N, C = ends). [ ]: non-standard residue; d: D form. The star is where a group is joined. hPhe(3-Cl-4-CF3) = N[C@@H](CCc1ccc(C(F)(F)F)c(Cl)c1)C(=O)O; NPrPhe(4-CF3) = CCCN[C@@H](Cc1ccc(C(F)(F)F)cc1)C(=O)O; NMeAbu(4,4,4-F3) = CN[C@@H](CC(F)(F)F)C(=O)O; X44 = CCCN([C@@H](Cc1ccccc1)C(=O)[*:2])[*:1]; NMeGly(cPent) = CN[C@H](C(=O)O)C1CCCC1; Pro(4,4-F2) = O=C(O)[C@@H]1CC(F)(F)CN1; NEtPhe = CCN[C@@H](Cc1ccccc1)C(=O)O; NMeGly(cBu) = CN[C@H](C(=O)O)C1CCC1; NMeF = CN[C@@H](Cc1ccccc1)C(=O)O; NMeD = CN[C@@H](CC(=O)O)C(=O)O; NMeL = CN[C@@H](CC(C)C)C(=O)O; NMeNva = CCC[C@H](NC)C(=O)O; NMeAbu = CC[C@H](NC)C(=O)O; Morpholide = C1CN(*)CCO1; NMeA = CN[C@@H](C)C(=O)O; Ac5c = NC1(C(=O)O)CCCC1; Aze = O=C(O)[C@@H]1CCN1; Ac4c = NC1(C(=O)O)CCC1; Sar = CNCC(=O)O

Sequence of GDP-bound HRAS wild-type protein (P01112 whole entry): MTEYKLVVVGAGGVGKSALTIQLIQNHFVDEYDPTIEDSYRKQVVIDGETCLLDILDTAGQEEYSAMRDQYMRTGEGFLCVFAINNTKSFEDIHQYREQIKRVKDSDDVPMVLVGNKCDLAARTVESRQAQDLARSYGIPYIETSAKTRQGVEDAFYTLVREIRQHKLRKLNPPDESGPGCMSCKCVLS
Sequence of GDP-bound NRAS wild-type protein (P01111 whole entry): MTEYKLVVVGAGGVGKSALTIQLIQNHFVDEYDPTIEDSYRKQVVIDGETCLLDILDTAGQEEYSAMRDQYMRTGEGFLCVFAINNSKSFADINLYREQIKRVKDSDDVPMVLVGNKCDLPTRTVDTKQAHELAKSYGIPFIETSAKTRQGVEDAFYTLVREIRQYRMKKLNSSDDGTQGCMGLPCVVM

Regarding `CCCN1C(=O)[C@@H]2CCN2C(=O)[C@H](C)N(C)C(=O)[C@H]([C@@H](C)CC)NC(=O)[C@H](CC(F)(F)F)N(C)C(=O)C[C@@H](C(=O)N2CCOCC2)N(C)C(=O)[C@H](C2CCCC2)N(C)C(=O)C2(CCCC2)NC(=O)[C@@H]2CC(F)(F)CN2C(=O)[C@H](CCc2ccc(C(F)(F)F)c(Cl)c2)NC(=O)CN(C)C(=O)[C@@H]1Cc1ccc(C(F)(F)F)cc1` [PP0203] ([NMeAbu(4,4,4-F3)]I[NMeA][Aze][NPrPhe(4-CF3)][Sar][hPhe(3-Cl-4-CF3)][Pro(4,4-F2)][Ac5c][NMeGly(cPent)][NMeD]-Morpholide; lactam N-11), in assay [1], the “HRAS/KRAS (ratio of KD for GDP-bound HRAS wild-type to KD for KRAS)” value was “C (A compound having a KD ratio of 0.1 or more and less than 3 is denoted as C)”. Moreover, the “NRAS/KRAS (ratio of KD for GDP-bound NRAS wild-type to KD for KRAS)” value in assay [2] was “C (A compound having a KD ratio of 0.1 or more and less than 3 is denoted as C)”.
For the compound `CCCN1C(=O)[C@@H]2CCN2C(=O)[C@H](C)N(C)C(=O)[C@H]([C@@H](C)CC)NC(=O)[C@H](C2CCC2)N(C)C(=O)C[C@@H](C(=O)N2CCOCC2)N(C)C(=O)[C@H](C2CCCC2)N(C)C(=O)C2(CCCC2)NC(=O)[C@@H]2CC(F)(F)CN2C(=O)[C@H](CCc2ccc(C(F)(F)F)c(Cl)c2)NC(=O)CN(C)C(=O)[C@@H]1Cc1ccc(C(F)(F)F)cc1` [PP0204] ([NMeGly(cBu)]I[NMeA][Aze][NPrPhe(4-CF3)][Sar][hPhe(3-Cl-4-CF3)][Pro(4,4-F2)][Ac5c][NMeGly(cPent)][NMeD]-Morpholide; lactam N-11), the “HRAS/KRAS (ratio of KD for GDP-bound HRAS wild-type to KD for KRAS)” value in assay [1] is “C (A compound having a KD ratio of 0.1 or more and less than 3 is denoted as C)”. Moreover, in assay [2], the “NRAS/KRAS (ratio of KD for GDP-bound NRAS wild-type to KD for KRAS)” value is “C (A compound having a KD ratio of 0.1 or more and less than 3 is denoted as C)”.
With `CCC[C@H]1C(=O)N[C@@H]([C@@H](C)CC)C(=O)N(C)[C@@H](C)C(=O)N2CC[C@H]2C(=O)N(CCC)[C@@H](Cc2ccc(C(F)(F)F)cc2)C(=O)N(C)CC(=O)N[C@@H](CCc2ccc(C(F)(F)F)c(Cl)c2)C(=O)N2CC(F)(F)C[C@H]2C(=O)NC2(CCCC2)C(=O)N(C)[C@@H](C2CCCC2)C(=O)N(C)[C@H](C(=O)N2CCOCC2)CC(=O)N1C` [PP0205] ([NMeNva]I[NMeA][Aze][NPrPhe(4-CF3)][Sar][hPhe(3-Cl-4-CF3)][Pro(4,4-F2)][Ac5c][NMeGly(cPent)][NMeD]-Morpholide; lactam N-11), the “HRAS/KRAS (ratio of KD for GDP-bound HRAS wild-type to KD for KRAS)” value in assay [1] is “C (A compound having a KD ratio of 0.1 or more and less than 3 is denoted as C)”. In assay [2], the “NRAS/KRAS (ratio of KD for GDP-bound NRAS wild-type to KD for KRAS)” value was “C (A compound having a KD ratio of 0.1 or more and less than 3 is denoted as C)”.
On to `CCCN1C(=O)[C@@H]2CCN2C(=O)[C@H](C)N(C)C(=O)[C@H]([C@@H](C)CC)NC(=O)[C@H](CC)N(C)C(=O)C[C@@H](C(=O)N2CCOCC2)N(C)C(=O)[C@H](C2CCCC2)N(C)C(=O)C2(CCCC2)NC(=O)[C@@H]2CC(F)(F)CN2C(=O)[C@H](CCc2ccc(C(F)(F)F)c(Cl)c2)NC(=O)CN(C)C(=O)[C@@H]1Cc1ccc(C(F)(F)F)cc1` [PP0206] ([NMeAbu]I[NMeA][Aze][NPrPhe(4-CF3)][Sar][hPhe(3-Cl-4-CF3)][Pro(4,4-F2)][Ac5c][NMeGly(cPent)][NMeD]-Morpholide; lactam N-11), for which the “HRAS/KRAS (ratio of KD for GDP-bound HRAS wild-type to KD for KRAS)” value in assay [1] was “B (a compound having 3 or more and less than 10 is denoted as B)”. In assay [2], the “NRAS/KRAS (ratio of KD for GDP-bound NRAS wild-type to KD for KRAS)” value was “C (A compound having a KD ratio of 0.1 or more and less than 3 is denoted as C)”.
Consider `CCCN1C(=O)CN(C)C(=O)CN(C)C(=O)[C@H]([C@@H](C)CC)NC(=O)[C@H](CC(C)C)N(C)C(=O)C[C@@H](C(=O)N2CCOCC2)N(C)C(=O)[C@H](C2CCCC2)N(C)C(=O)C2(CCC2)NC(=O)[C@@H]2CC(F)(F)CN2C(=O)[C@H](CCc2ccc(C(F)(F)F)c(Cl)c2)NC(=O)CN(C)C(=O)[C@@H]1Cc1ccc(C(F)(F)F)cc1` [PP0207] ([NMeL]I[Sar][Sar][NPrPhe(4-CF3)][Sar][hPhe(3-Cl-4-CF3)][Pro(4,4-F2)][Ac4c][NMeGly(cPent)][NMeD]-Morpholide; lactam N-11), for which the “HRAS/KRAS (ratio of KD for GDP-bound HRAS wild-type to KD for KRAS)” value in assay [1] is “C (A compound having a KD ratio of 0.1 or more and less than 3 is denoted as C)”. In addition, the “NRAS/KRAS (ratio of KD for GDP-bound NRAS wild-type to KD for KRAS)” value in assay [2] is “B (a compound having 3 or more and less than 10 is denoted as B)”.
As for `CCCN1C(=O)[C@@H]2CCN2C(=O)[C@H](C)N(C)C(=O)[C@H]([C@@H](C)CC)NC(=O)[C@H](CC(C)C)N(C)C(=O)C[C@@H](C(=O)N2CCOCC2)N(C)C(=O)[C@H](C2CCCC2)N(C)C(=O)C2(CCC2)NC(=O)[C@@H]2CC(F)(F)CN2C(=O)[C@H](CCc2ccc(C(F)(F)F)c(Cl)c2)NC(=O)CN(C)C(=O)[C@@H]1Cc1ccc(C(F)(F)F)cc1` [PP0208] ([NMeL]I[NMeA][Aze][NPrPhe(4-CF3)][Sar][hPhe(3-Cl-4-CF3)][Pro(4,4-F2)][Ac4c][NMeGly(cPent)][NMeD]-Morpholide; lactam N-11), the “HRAS/KRAS (ratio of KD for GDP-bound HRAS wild-type to KD for KRAS)” value in assay [1] was “C (A compound having a KD ratio of 0.1 or more and less than 3 is denoted as C)”. In addition, the “NRAS/KRAS (ratio of KD for GDP-bound NRAS wild-type to KD for KRAS)” value in assay [2] is “C (A compound having a KD ratio of 0.1 or more and less than 3 is denoted as C)”.
As to `CCCN1C(=O)[C@@H]2CCN2C(=O)[C@H](Cc2ccccc2)N(C)C(=O)[C@H]([C@@H](C)CC)NC(=O)[C@H](CC(C)C)N(C)C(=O)C[C@@H](C(=O)N2CCOCC2)N(C)C(=O)[C@H](C2CCCC2)N(C)C(=O)C2(CCCC2)NC(=O)[C@@H]2CCCN2C(=O)[C@H](CCc2ccc(C(F)(F)F)c(Cl)c2)NC(=O)CN(C)C(=O)[C@@H]1Cc1ccc(C(F)(F)F)cc1` [PP0209] ([NMeL]I[NMeF][Aze][NPrPhe(4-CF3)][Sar][hPhe(3-Cl-4-CF3)]P[Ac5c][NMeGly(cPent)][NMeD]-Morpholide; lactam N-11), in assay [1], the “HRAS/KRAS (ratio of KD for GDP-bound HRAS wild-type to KD for KRAS)” value was “C (A compound having a KD ratio of 0.1 or more and less than 3 is denoted as C)”. For the same compound, in assay [2], the “NRAS/KRAS (ratio of KD for GDP-bound NRAS wild-type to KD for KRAS)” value is “C (A compound having a KD ratio of 0.1 or more and less than 3 is denoted as C)”.
Consider `CC[C@H](C)[C@@H]1NC(=O)[C@H](CC(C)C)N(C)C(=O)C[C@@H](C(=O)N2CCOCC2)N(C)C(=O)[C@H](C2CCCC2)N(C)C(=O)C2(CCCC2)NC(=O)[C@@H]2CCCN2C(=O)[C@H](CCc2ccc(C(F)(F)F)c(Cl)c2)NC(=O)CN(C)C(=O)[C@H](Cc2ccccc2)N(CC)C(=O)CN(C)C(=O)CN(C)C1=O` [PP0210] ([NMeL]I[Sar][Sar][NEtPhe][Sar][hPhe(3-Cl-4-CF3)]P[Ac5c][NMeGly(cPent)][NMeD]-Morpholide; lactam N-11), for which the “HRAS/KRAS (ratio of KD for GDP-bound HRAS wild-type to KD for KRAS)” value in assay [1] is “C (A compound having a KD ratio of 0.1 or more and less than 3 is denoted as C)”. In addition, the “NRAS/KRAS (ratio of KD for GDP-bound NRAS wild-type to KD for KRAS)” value in assay [2] was “C (A compound having a KD ratio of 0.1 or more and less than 3 is denoted as C)”.
In the case of `CCCN1C(=O)CN(C)C(=O)CN(C)C(=O)[C@H]([C@@H](C)CC)NC(=O)[C@H](CC(C)C)N(C)C(=O)C[C@@H](C(=O)N2CCOCC2)N(C)C(=O)[C@H](C2CCCC2)N(C)C(=O)C2(CCCC2)NC(=O)[C@@H]2CCCN2C(=O)[C@H](CCc2ccc(C(F)(F)F)c(Cl)c2)NC(=O)CN(C)C(=O)[C@@H]1Cc1ccccc1` [PP0211] ([NMeL]I[Sar][Sar][X44][Sar][hPhe(3-Cl-4-CF3)]P[Ac5c][NMeGly(cPent)][NMeD]-Morpholide; lactam N-11), the “HRAS/KRAS (ratio of KD for GDP-bound HRAS wild-type to KD for KRAS)” value in assay [1] was “C (A compound having a KD ratio of 0.1 or more and less than 3 is denoted as C)”. The “NRAS/KRAS (ratio of KD for GDP-bound NRAS wild-type to KD for KRAS)” value in assay [2] is “B (a compound having 3 or more and less than 10 is denoted as B)”.
